From patent US8492384B2 (Korea Institute of Science and Technology, priority 2008, dated 2013)

Columns and labels:
Type in all cases: cell-based
[1] = molecular target: T1, α1G T-type calcium channels (Homo sapiens, UniProt O43497); test: T-type calcium channel activity using the FDSS6000 (HTS, Fluo-3/AM, KCl-induced intracellular calcium change); details: percent inhibition at 10 μM, HEK293 cells stably expressing α1G T-type calcium channels and Kir2.1, KCl 75 mM activation; for inhibition at 10 µM: read-out: FDSS (%, 10 μM)
T1 construct: host or cells: HEK293
T1 sequence (O43497 whole entry): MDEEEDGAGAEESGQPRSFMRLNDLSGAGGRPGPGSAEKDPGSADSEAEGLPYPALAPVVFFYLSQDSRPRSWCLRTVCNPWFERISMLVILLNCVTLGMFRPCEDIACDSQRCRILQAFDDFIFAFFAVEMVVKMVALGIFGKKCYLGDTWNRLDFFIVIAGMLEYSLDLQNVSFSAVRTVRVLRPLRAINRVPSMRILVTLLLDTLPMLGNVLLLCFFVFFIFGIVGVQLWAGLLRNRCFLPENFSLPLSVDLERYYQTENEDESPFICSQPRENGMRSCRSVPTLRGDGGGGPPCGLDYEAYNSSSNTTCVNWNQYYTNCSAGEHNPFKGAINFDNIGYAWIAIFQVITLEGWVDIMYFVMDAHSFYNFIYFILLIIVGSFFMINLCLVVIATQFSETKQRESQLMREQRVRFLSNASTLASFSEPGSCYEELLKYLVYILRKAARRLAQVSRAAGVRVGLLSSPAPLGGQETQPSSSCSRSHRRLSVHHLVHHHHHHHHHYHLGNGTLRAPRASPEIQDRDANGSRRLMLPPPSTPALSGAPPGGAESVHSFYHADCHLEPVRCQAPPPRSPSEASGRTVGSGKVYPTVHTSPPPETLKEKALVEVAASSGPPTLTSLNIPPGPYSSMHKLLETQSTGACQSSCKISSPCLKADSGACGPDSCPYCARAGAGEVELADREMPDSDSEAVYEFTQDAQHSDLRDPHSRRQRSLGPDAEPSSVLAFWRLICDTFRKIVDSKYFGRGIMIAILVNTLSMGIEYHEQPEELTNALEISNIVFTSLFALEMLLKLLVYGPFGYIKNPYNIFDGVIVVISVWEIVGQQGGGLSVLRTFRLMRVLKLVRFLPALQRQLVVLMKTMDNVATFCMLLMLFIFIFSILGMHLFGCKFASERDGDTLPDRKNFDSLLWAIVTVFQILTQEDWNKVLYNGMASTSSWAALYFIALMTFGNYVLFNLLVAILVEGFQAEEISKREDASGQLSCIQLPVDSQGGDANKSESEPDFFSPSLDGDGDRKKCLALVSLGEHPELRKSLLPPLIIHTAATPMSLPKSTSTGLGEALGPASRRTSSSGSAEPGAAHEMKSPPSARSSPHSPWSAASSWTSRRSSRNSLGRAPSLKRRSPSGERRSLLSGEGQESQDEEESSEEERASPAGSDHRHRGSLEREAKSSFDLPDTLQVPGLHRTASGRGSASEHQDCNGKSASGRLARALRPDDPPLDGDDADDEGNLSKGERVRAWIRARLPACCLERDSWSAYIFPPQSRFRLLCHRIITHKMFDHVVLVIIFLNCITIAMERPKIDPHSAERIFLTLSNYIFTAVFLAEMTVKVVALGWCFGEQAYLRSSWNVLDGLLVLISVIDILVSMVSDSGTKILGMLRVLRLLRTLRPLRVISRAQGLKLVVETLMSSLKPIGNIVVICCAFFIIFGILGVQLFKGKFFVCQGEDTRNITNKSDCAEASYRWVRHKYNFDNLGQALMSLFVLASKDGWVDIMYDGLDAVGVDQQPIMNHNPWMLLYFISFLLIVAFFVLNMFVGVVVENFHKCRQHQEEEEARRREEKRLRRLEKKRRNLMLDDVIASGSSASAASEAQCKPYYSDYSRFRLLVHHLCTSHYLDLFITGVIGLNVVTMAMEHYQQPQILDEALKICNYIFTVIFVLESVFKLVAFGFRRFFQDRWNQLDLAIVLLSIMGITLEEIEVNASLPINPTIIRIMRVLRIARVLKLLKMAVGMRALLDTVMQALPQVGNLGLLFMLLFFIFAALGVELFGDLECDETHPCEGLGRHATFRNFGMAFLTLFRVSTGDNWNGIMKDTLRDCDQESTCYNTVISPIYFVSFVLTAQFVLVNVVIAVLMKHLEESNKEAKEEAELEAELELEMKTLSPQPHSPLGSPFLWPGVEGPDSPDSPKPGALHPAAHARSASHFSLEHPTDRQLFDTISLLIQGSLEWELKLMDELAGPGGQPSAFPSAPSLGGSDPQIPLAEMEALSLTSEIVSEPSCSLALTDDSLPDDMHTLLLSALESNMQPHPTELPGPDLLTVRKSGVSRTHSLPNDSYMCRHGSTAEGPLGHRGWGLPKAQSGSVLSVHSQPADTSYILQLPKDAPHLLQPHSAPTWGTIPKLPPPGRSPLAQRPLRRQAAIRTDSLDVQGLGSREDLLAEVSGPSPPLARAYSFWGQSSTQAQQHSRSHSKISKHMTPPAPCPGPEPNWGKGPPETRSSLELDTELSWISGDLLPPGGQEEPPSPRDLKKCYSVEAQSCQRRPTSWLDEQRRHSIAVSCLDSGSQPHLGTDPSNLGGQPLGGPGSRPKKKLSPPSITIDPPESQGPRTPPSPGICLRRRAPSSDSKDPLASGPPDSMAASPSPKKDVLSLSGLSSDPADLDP
Experimental: (§1) The novel compounds of the present invention presented as the formula 1 were tested for their antagonistic activities against T-type calcium channels using the methods described below. More specifically, the synthesized compounds were screened as follows: First, as a primary screening, the compounds having 40% or higher of antagonistic activities against T-type calcium channels were selected using the FDSS6000, a high throughput screening (HTS) device. Then, as a secondary screening, the IC50 (effective inhibitory concentration) values were obtained using the electrophysiological methods.
1) Methods for the Measurements of T-Type Calcium Channel Activity Using the FDSS6000
12 to 24 hours prior to the FDSS-based HTS assay, HEK293 cells stably expressing both α1G T-type calcium channels and Kir2.1 channels (α1G cell line: KCTC 10519BP, KRIBB (Korea Research Institute of Bioscience and Biotechnology) (GENE BANK) were seeded onto the 96-well plate coated with poly-L-lysine (0.05 mg/mL) at a density of 4×10^4 cells/well using a cell distributor (Titertek, USA). On the following day, the cells attached onto the 96-well plate were washed three times with a HEPES-buffered solution (150 mM NaCl, 5 mM KCl, 1 mM MgCl2, 2 mM CaCl2, 10 mM HEPES, 10 mM glucose, and pH 7.4) using an automatic 96-well plate washer (BioTek, USA), and then labeled with a fluorescent calcium indicator dye, Fluo-3/AM (5 μM) and 0.001% Pluronic F-127 in a HEPES-buffered solution at room temperature for 1 hour and then washed again with a HEPES-buffered solution twice. 10 minutes prior to the FDSS6000 measurements, the cells was washed with a HEPES-buffered solution containing 10 mM CaCl2 once and the final volume was adjusted.
In addition to the 96-well plates with cells, the two drug plates were prepared: one containing KCl (final concentration of 75 mM) for the activation of T-type calcium channels, and the other containing testing compounds (blocking agents of T-type calcium channels). Since most cell-based HTS devices are provided with a liquid application system for drug injection but not with a liquid absorption system, the KCl solution and the blocking agents for screening were prepared at concentrations five times higher than the final concentrations in the 10 mM CaCl2 HEPES-buffered solution, and then diluted in the cell plate, and the activities were measured. The specific method of the FDSS6000 measurements is as follows: For the FDSS6000 measurements, after the 20-sec baseline recordings, cells were preincubated with drugs for 75 seconds and the change in intracellular calcium concentration induced by KCl was measured. The percent inhibition by a test compound was calculated as integrated values of 340/380 fluorescent ratio of untreated and drug-treated cells. The control drug was 10 μM of Mibefradil®.
In details, cells were selectively exposed to 340 nm and 380 nm light excited by 4 xenon lamps installed in FDSS6000 using a computer-controlled filter wheel. The emitter fluorescence light through a 515 nm long-pass filter was passed by a freezing digital CCD camera mounted on the device. Data were collected every 1.23 seconds, and an average value of 340/380 fluorescent ratio for each well was obtained using a digital fluorescent analyzer. Data acquisition and analysis were performed using a program provided by Hamamatsu Photonics.

[2] = molecular target: T1, α1G T-type calcium channels; test: T-type calcium channel activity using electrophysiological whole-cell patch-clamp technique; details: HEK293 cells expressing α1G T-type calcium channels
Experimental: as §1
2) Methods for the Measurements of T-Type Calcium Channel Activity Using an Electrophysiological Whole-Cell Patch-Clamp Technique
HEK293 cells stably expressing T-type calcium channels were cultured in DMEM (Dulbecco's modified Eagle's medium) containing 10% (v/v) fetal bovine serum and 1% penicillin/streptomycin (v/v) in humidified 5% CO2 at 36.5° C. Cells expressing α1GT-type calcium channels were selected using G-418 (0.5 mg/mL) in the culture medium. The culture medium was replaced with a fresh one every 3-4 days, and cells were subcultured every week.
Cells were seeded onto the coverglass coated with poly-L-lysine (0.5 mg/mL) for the measurements of T-type calcium channel activity 2-7 days prior to the recordings. Whole-cell recordings of T-type calcium channel currents were performed using an EPC-9 patch clamp amplifier (HEKA, Germany). Whole-cell currents were recorded using micropipettes with resistance of 3-4 MΩ with the pipette (intracellular) solution containing (in mM): 130 KCl, 11 EGTA, 5 Mg-ATP, and 10 HEPES, pH to 7.4 and with the bath (extracellular) solution containing (in mM): 140 NaCl, 2 CaCl2, and 10 HEPES, pH to 7.4. The inward currents of T-type calcium channels were evoked by the test pulses of −30 mV for 50 ms at a holding potential of −100 mV every 10 seconds.
Each compound was dissolved in dimethylsulfoxide (DMSO) as 10 mM stock solutions and diluted in the bath solution to 10 μM (containing 0.1% DMSO). […] More specifically, each compound was perfused to the bath for about 30-60 seconds, and the inhibition of the inward peak currents by a test compound was calculated as a percent inhibition from which the IC50 values were determined.

[3] = molecular target: T1, α1G T-type calcium channels; test: as above; details: percent inhibition of inward peak currents, HEK293 cells expressing α1G, head prints 100 μM

O=C(CCn1ccnc1-c1ccccc1)N1CCN(c2cccc(Cl)c2)CC1 [Compound No. 26, 1-N-[4-(3-chlorophenyl)piperazin-1-yl]carbonylethyl-2-phenylimidazole]
inhibition at 10 µM [1]: 35.1%

O=C(CCn1ccnc1-c1ccccc1)NCCN1CCN(c2ccc(F)cc2)CC1 [Compound No. 74, 1-N-{2-[4-(4-fluorophenyl)piperazin-1-yl]ethyl}carbamoylethyl-2-phenylimidazole]
inhibition at 10 µM [1]: 49.8% | IC50 [2]: 14.5 ± 0.68 µM | inhibition at 100 µM [3]: 37.6 ± 0.5%

COc1ccc(CN2CCN(CCNC(=O)CCn3ccnc3C)CC2)cc1 [Compound No. 98, 1-N-{2-[4-(4-methoxybenzyl)piperazin-1-yl]ethyl}carbamoylethyl-2-methylimidazole]
inhibition at 10 µM [1]: 33.8%

O=C(CCn1cnc(-c2ccccc2)c1)NCCN1CCN(Cc2ccc(F)cc2)CC1 [Compound No. 70, 1-N-{2-[4-(4-fluorobenzyl)piperazin-1-yl]ethyl}carbamoylethyl-4-phenylimidazole]
inhibition at 10 µM [1]: 36.7%

O=C(CCn1cnc(-c2ccccc2)c1)NCCN1CCN(c2ccc(F)cc2)CC1 [Compound No. 73, 1-N-{2-[4-(4-fluorophenyl)piperazin-1-yl]ethyl}carbamoylethyl-4-phenylimidazole]
inhibition at 10 µM [1]: 41.7%

CCN1CCN(C(=O)CCn2ccnc2-c2ccccc2)CC1 [Compound No. 23, 1-N-(4-ethylpiperazin-1-yl)carbonylethyl-2-phenylimidazole]
inhibition at 10 µM [1]: 23.4%

Cc1ccc(N2CCN(CCNC(=O)CCn3ccnc3-c3ccccc3)CC2)c(C)c1 [Compound No. 62, 1-N-{2-[4-(2,4-dimethylphenyl)piperazin-1-yl]ethyl}carbamoylethyl-2-phenylimidazole]
inhibition at 10 µM [1]: 40.5%

1-N-{2-[4-(4-chlorophenyl) (phenyl)methylpiperazin-1-yl]ethyl}carbamoylethyl-2-methylimidazole [Compound No. 93]
FDSS (%, 10 μM) [1]: 43.04% | IC50 [2]: 9.55 ± 8.7 µM

1-N-{2-[4-(2,3-dimethylphenyl)(phenyl)methylpiperazin-1-yl]ethyl}carbamoylethyl-4-phenylimidazole [Compound No. 56]
FDSS (%, 10 μM) [1]: 35.38%

1-N-[4-(4-chlorophenyl)(phenyl)methylpiperazin-1-yl]carbonylethyl-2-methylimidazole [Compound No. 46]
FDSS (%, 10 μM) [1]: 51.94% | IC50 [2]: 4.97 ± 0.18 µM | HEK293 (%, 100 μM) [3]: 67.6 ± 1.3%

Cc1cccc(CN2CCN(CCNC(=O)CCn3cnc(-c4ccccc4)c3)CC2)c1 [Compound No. 67, 1-N-{2-[4-(3-methylbenzyl)piperazin-1-yl]ethyl}carbamoylethyl-4-phenylimidazole]
inhibition at 10 µM [1]: 39.2%

Cc1ccc(N2CCN(C(=O)CCn3ccnc3-c3ccccc3)CC2)c(C)c1 [Compound No. 16, 1-N-[4-(2,4-dimethylphenyl)piperazin-1-yl]carbonylethyl-2-phenylimidazole]
inhibition at 10 µM [1]: 34.3%

O=C(CCn1cnc(-c2ccccc2)c1)N1CCN(Cc2ccccc2)CC1 [Compound No. 2, 1-N-(4-benzylpiperazin-1-yl)carbonylethyl-4-phenylimidazole]
inhibition at 10 µM [1]: 33.5%

Cc1ccc(N2CCN(C(=O)CCn3cnc(C)c3)CC2)c(C)c1 [Compound No. 38, 1-N-[4-(2,4-dimethylphenyl)piperazin-1-yl]carbonylethyl-4-methylimidazole]
inhibition at 10 µM [1]: 33.8%

O=C(CCn1cnc(-c2ccccc2)c1)NCCN1CCN(c2ccccc2)CC1 [Compound No. 71, 1-N-[2-(4-phenylpiperazin-1-yl)ethyl]carbamoylethyl-4-phenylimidazole]
inhibition at 10 µM [1]: 30.7%

O=C(CCn1cnc(-c2ccccc2)c1)N1CCN(c2ccccc2)CC1 [Compound No. 53, 1-N-(4-phenylpiperazin-1-yl)carbonylethyl-4-phenylimidazole]
inhibition at 10 µM [1]: 42.2% | IC50 [2]: 0.00046 µM

COc1ccc(N2CCN(CCNC(=O)CCn3cnc(-c4ccccc4)c3)CC2)cc1 [Compound No. 75, 1-N-{2-[4-(4-methoxyphenyl)piperazin-1-yl]ethyl}carbamoylethyl-4-phenylimidazole]
inhibition at 10 µM [1]: 33%

Cc1ccc(N2CCN(CCNC(=O)CCn3cnc(-c4ccccc4)c3)CC2)c(C)c1 [Compound No. 61, 1-N-{2-[4-(2,4-dimethylphenyl)piperazin-1-yl]ethyl}carbamoylethyl-4-phenylimidazole]
inhibition at 10 µM [1]: 44.9%

Cc1cccc(CN2CCN(CCNC(=O)CCn3ccnc3-c3ccccc3)CC2)c1 [Compound No. 68, 1-N-{2-[4-(3-methylbenzyl)piperazin-1-yl]ethyl}carbamoylethyl-2-phenylimidazole]
inhibition at 10 µM [1]: 31.1%

1-N-{2-[4-(4-chlorophenyl) (phenyl)methylpiperazin-1-yl]ethyl}carbamoylethyl-4-methylimidazole [Compound No. 94]
FDSS (%, 10 μM) [1]: 55.99% | IC50 [2]: 6.77 ± 1.45 µM

COc1ccc(N2CCN(C(=O)CCn3cnc(-c4ccccc4)c3)CC2)cc1 [Compound No. 27, 1-N-[4-(4-methoxyphenyl)piperazin-1-yl]carbonylethyl-4-phenylimidazole]
inhibition at 10 µM [1]: 37.8%

O=C(CCn1cnc(-c2ccccc2)c1)NCCN1CCN(c2cccc(Cl)c2)CC1 [Compound No. 79, 1-N-{2-[4-(3-chlorophenyl)piperazin-1-yl]ethyl}carbamoylethyl-4-phenylimidazole]
inhibition at 10 µM [1]: 36.9%

Cc1nccn1CCC(=O)NCCN1CCN(C(c2ccccc2)c2ccccc2)CC1 [Compound No. 96, 1-N-[2-(4-diphenylmethylpiperazin-1-yl)ethyl]carbamoylethyl-2-methylimidazole]
inhibition at 10 µM [1]: 41.4% | IC50 [2]: 0.39 ± 0.28 µM

Cc1nccn1CCC(=O)N1CCN(C(c2ccccc2)c2ccccc2)CC1 [Compound No. 35, 1-N-(4-diphenylmethylpiperazin-1-yl)carbonylethyl-2-methylimidazole]
inhibition at 10 µM [1]: 35%

O=C(CCn1ccnc1-c1ccccc1)N1CCN(c2ccccc2)CC1 [Compound No. 54, 1-N-(4-phenylpiperazin-1-yl)carbonylethyl-2-phenylimidazole]
inhibition at 10 µM [1]: 24.2%

O=C(CCn1ccnc1-c1ccccc1)N1CCN(Cc2ccc(F)cc2)CC1 [Compound No. 21, 1-N-[4-(4-fluorobenzyl)piperazin-1-yl]carbonylethyl-2-phenylimidazole]
inhibition at 10 µM [1]: 36.8%

Cc1cccc(N2CCN(C(=O)CCn3ccnc3-c3ccccc3)CC2)c1C [Compound No. 15, 1-N-[4-(2,3-dimethylphenyl)piperazin-1-yl]carbonylethyl-2-phenylimidazole]
inhibition at 10 µM [1]: 34.4%
